Source: patent US20050123593A1, “Liposomal encapsulation of glycosaminoglycans for the treatment of arthritic joints” (priority 2001, published 2005)

Tests used:
[1] = tested on: osteoarthritic pain; settings: intra-articular injection; cited from earlier work
[2] = Freeze fracture microscopy (FF-TEM) of the compositions; assay type: physicochemical; settings: freeze-fracture transmission electron microscope
Protocol: The compositions were subsequently examined using a freeze-fracture transmission electron microscope (FF-TEM). FF-TEM samples of each formulation were prepared in accordance with techniques described in chapter 5 of “Low Temperature Microscopy and Analysis” by Patrick Echlin (1992). The sample was mounted between thin metal sheets and rapidly cooled with liquid propane to −196° C. The sample was then transferred under liquid nitrogen to a pre-cooled cold stage of a Balzers BAF-301 high vacuum freeze-etch unit (Techno Trade International, Lichtenstein). The sample was fractured at low temperature and etched at −150° C. to remove a surface layer of water. The fracture faces were shadowed at an angle of 45° with platinum to create selective electron contrast. A thin layer of carbon was deposited over the entire fracture surface to create a continuous replica. The replicas were then examined using a JEOL 100CX2 electron microscope (Japanese Electronic Optical Laboratories, Japan).

[3] = in vivo; cited from earlier work

Compound	pain relief [1]	Structures seen by FF-TEM [2]	overall turnover rate t1/2 [3]
CCCCCCCCCCCCCCCC(=O)OC[C@H](COP(=O)([O-])OCC[N+](C)(C)C)OC(=O)CCCCCCCCCCCCCCC [DPPC, 1,2-dipalmitoyl-sn-glycero-3-phosphocholine]	reduce osteoarthritic pain		
Hyaluronic acid		presence of string like structures	0.5 to a few
